Test results published in publication PMC11604048, “Constrained TACC3 peptidomimetics for a non-canonical protein–protein interface elucidate allosteric communication in Aurora-A kinase” (Chemical Science, 2024).
Residue numbers refer to the chain shown, from its start. Names and notes keep the numbering of the source. Like-named read-outs stand apart in the source and are kept apart here. Each block holds one molecule with its values, some of them ahead of it. *1 amine or outer side, *2 acyl side, *3 side chain or, on linkers, in order; H or OH if unused. Where a SMILES comes first, the peptide text is derived from it. Bridges are numbered along the chain shown (N, C = ends). [ ]: non-standard residue; d: D form. Biphenyl(4,4'-CH2)2 = c1cc(-c2ccc(C[*:2])cc2)ccc1C[*:1]; Pro(trans-4-F) = O=C(O)[C@@H]1C[C@@H](F)CN1; Phe(4-I) = N[C@@H](Cc1ccc(I)cc1)C(=O)O

How the values were obtained:
[1] = biological target: T1, Aurora-A122-403-C290A/C393A (Homo sapiens, UniProt O14965, C290A/C393A); test: Competition FA assay against FAM-Ahx-TACC3 522-536 tracer; type: binding; conditions: SD; read-out: IC50
T1 construct: Human Aurora-A kinase domain 122-403 wild-type or C290A/ C393A mutant; His tag (pET30TEV vector) (N, cleaved yes); made in house; host or cells: E. coli RIL, co-expressed with lambda phosphatase (Aurora-A); tracer by solid phase synthesis
T1 sequence (O14965 122-403 C290A/C393A): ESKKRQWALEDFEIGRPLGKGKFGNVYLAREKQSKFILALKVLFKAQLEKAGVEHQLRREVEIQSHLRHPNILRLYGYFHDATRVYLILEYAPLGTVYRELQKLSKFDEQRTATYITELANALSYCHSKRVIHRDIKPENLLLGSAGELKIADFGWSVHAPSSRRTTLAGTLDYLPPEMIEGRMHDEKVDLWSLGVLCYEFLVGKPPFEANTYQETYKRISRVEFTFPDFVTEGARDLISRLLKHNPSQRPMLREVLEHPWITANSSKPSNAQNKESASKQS

[2] = biological target: T1, Aurora-A122-403-C290A/C393A; test: Isothermal titration calorimetry (ITC); type: binding; conditions: for -TΔS° / Kd / ΔG° / ΔH° / N (stoichiometry): ITC as E13
Method: Isothermal titration calorimetry (ITC). ITC experiments were carried out using a MicroCal PEAQ-ITC system (Malvern Panalytical) at 25 °C. A stock solution of Aurora-A 122-403-290A/C393A was dialyzed into ITC buffer overnight (25 mM Tris buffer, pH= 7.5; 150 mM NaCl; 5 mM MgCl2; 5 % v/v glycerol), and the same buffer was employed to resuspend a solid portion of the testing peptides. For each experiment, initially, the cell was filled with 275 µl of Aurora-A122-403-290A/C393A (46 μM) and the syringe was loaded with the corresponding peptide at 1.25 mM concentration. An initial injection of 0.5 μL was then followed by 13 injections of 3 μL, every 150 s, with a constant syringe rotation speed of 750 rpm throughout. The signal for the enthalpy of dilution of each peptide into buffer was independently measured in a control titration experiment and then subtracted from the experimental binding traces. The Kd, ΔG°, ΔH° and -TΔS° values were determined via the MicroCal PEAQ-ITC analysis software (Malvern Paranalytical) using a single-site binding model. […]

[3] = biological target: T2, α-chymotrypsin (bovine pancreas) (Bos taurus, UniProt P00766); test: Peptide enzymatic degradation assay, α-chymotrypsin; type: in vitro ADME; conditions: as E58; for stability to α-chymotrypsin (in words): compared with WT sequence
T2 construct: purchased Sigma; host or cells: bovine pancreas
Method: (§1) into individual aliquots at -20 °C. […]
(§2) a concentration of 1 mg mL−1 concentration. The digestion samples were immediately prepared by mixing […]
(§3) were then incubated at 25 °C for 6 hours. […]
(§4) thermo-shaker for 6 hours. […]
(§5) presence of enzyme (t=0). […]
(§6) r = r଴ + A x e భ Eq. (SI - 10)
(§7) τ = tଵ ln(2) Eq. (SI - 11)
(§8) In all cases, control samples were […]
(§9) replicates and error bars indicating the corresponding SD. […]

[4] = biological target: T3, Aurora-A122-403-C290A/C393A (N-Myc/Aurora-A interaction) (Homo sapiens, UniProt O14965, C290A/C393A); test: FA competition assay against FAM-Ahx-N-Myc61-89; type: binding; conditions: SD; read-out: IC50 (N-Myc displacement)
T3 construct: Human Aurora-A kinase domain 122-403 wild-type or C290A/ C393A mutant; His tag (pET30TEV vector) (N, cleaved yes); made in house; host or cells: E. coli RIL, co-expressed with lambda phosphatase (Aurora-A)
T3 sequence (O14965 122-403 C290A/C393A): T1 sequence (O14965 122-403 C290A/C393A)
Method: (1 picture or pasted object on this page, not shown here)
FA competition assays were performed using the same plates and buffer as described above, with the initial […]
14 points in a 1/2 regime. […]
after 4 h of incubation to enable appropriate sample equilibration. To prevent sample oxidation, when sulfhydryl peptides were analyzed DTT was added to the buffer (5 mM). In competition mode, the average anisotropy and the average standard deviation of the values derived from equation SI-6 were calculated […]
When using peptides for which full
For consistency, all the data […]
indicating the corresponding SD.
Molecular dynamics (MD) analyses: All peptide–protein complexes were subjected to duplicate MD simulations using YASARA structure.13 Starting from the reported x-ray crystal structure of one molecule of […]
modifications were introduced by direct replacement of the relevant atoms within the structure. When needed, biphenyl constraints were modeled in YASARA by swapping the pertinent amino acids for cysteines and connecting them to biphenyl- fragments. […]
crystal structure), and then minimised structures were generated using the energy minimization function with default settings. The modelled complexes were subjected to MD simulations using YASARA structure macro for fast MD run (www.yasara.org/md_runfast.mcr).14 Briefly, the AMBER14 forcefield was used and […]

Trypsin [5] = conditions: pH 7.5
Trypsin [6] = test: Peptide enzymatic degradation assay, trypsin; conditions: as E60, compared with WT TACC3 518-532
[7] = Peptide enzymatic degradation assay, α-chymotrypsin; type: in vitro ADME, bovine; conditions: α-chymotrypsin (bovine pancreas), peptide 100 µM, peptide/enzyme molar ratio [P]/[E]= 25, HEPES 25 mM, pH 7.5, 25 °C, 6 hours, RP-HPLC peak area, exponential decay fit, three independent experiments, mean ± SD, SD, read-out: t1/2 in the presence of α-chymotrypsin
Method: as §1, §2, §3, §4, §5, §6, §7, §8, §9

Aurora-A 122-403 [8] = biological target: T4, Aurora-A 122-403 (Homo sapiens, UniProt O14965); test: fluorescence anisotropy competition against TPX2
T4 chain: T1 sequence (O14965 122-403 C290A/C393A) with A169C, A272C

Aurora-A 122-403 [9] = biological target: T4, Aurora-A 122-403; test: fluorescence anisotropy competition against N-Myc
[10] = N unrestrained fit, single titration

IC50 [1]: 17 ± 1 µM
-TΔS° ([2]; N restrained fit, Run 1): -5.5 kcal/mol
Kd ([2]; N restrained fit, Run 1): 5.6 µM
ΔG° ([2]; N restrained fit, Run 1): -7.17 kcal/mol
ΔH° ([2]; N restrained fit, Run 1): -1.65 kcal/mol
-TΔS° ([2]; N restrained fit, Run 2): -5.33 kcal/mol
Kd ([2]; N restrained fit, Run 2): 5.9 µM
ΔG° ([2]; N restrained fit, Run 2): -7.15 kcal/mol
ΔH° ([2]; N restrained fit, Run 2): -1.79 kcal/mol
-TΔS° ([2]; N unrestrained fit, Run 1): -5.71 kcal/mol
Kd ([2]; N unrestrained fit, Run 1): 4.6 µM
N (stoichiometry) ([2]; N unrestrained fit, Run 1): 1.06
ΔG° ([2]; N unrestrained fit, Run 1): -7.29 kcal/mol
ΔH° ([2]; N unrestrained fit, Run 1): -1.55 kcal/mol
-TΔS° ([2]; N unrestrained fit, Run 2): -5.43 kcal/mol
Kd ([2]; N unrestrained fit, Run 2): 5.5 µM
N (stoichiometry) ([2]; N unrestrained fit, Run 2): 1.02
ΔG° ([2]; N unrestrained fit, Run 2): -7.17 kcal/mol
ΔH° ([2]; N unrestrained fit, Run 2): -1.74 kcal/mol
-TΔS ([2]; ITC as E40, average of two independent titrations): -5.43 kcal/mol
time resistant to chymotrypsin with no cleavage by-products detected ([3]; HPLC and LC/MS analysis): ~ 6 hr
stability to α-chymotrypsin (in words) [3]: increased resistance
IC50 [4]: 28.3 ± 1.2 µM
t1/2 in the presence of trypsin (Trypsin [5]): ≥ 330 min
stability to trypsin (in words) (Trypsin [6]): increased resistance
Molecule: CC(=O)N[C@@H](CC(C)C)C(=O)N[C@@H](CCC(=O)O)C(=O)N[C@H]1CSCc2ccc(cc2)-c2ccc(cc2)CSC[C@@H](C(=O)N[C@@H](CC(=O)O)C(=O)N2C[C@H](F)C[C@H]2C(=O)N[C@@H](C)C(=O)N[C@@H](CCC(=O)O)C(=O)N[C@H](C(=O)N[C@@H](CC(C)C)C(N)=O)C(C)C)NC(=O)[C@H](Cc2ccc(I)cc2)NC(=O)[C@H](CO)NC(=O)[C@H](CCC(=O)O)NC(=O)[C@H](CCC(=O)O)NC(=O)[C@H](CCCCN)NC1=O [TACC3 518-532-L/R-Bph-IF/fP] (Ac-LECKEES[Phe(4-I)]CD[Pro(trans-4-F)]AEVL-NH2; linker 3-9 via Biphenyl(4,4'-CH2)2)

IC50 [1]: 12 ± 1 µM
-TΔS° [2, 10]: -4.47 kcal/mol
Kd [2, 10]: 16.7 µM
N (stoichiometry) [2, 10]: 1.62
ΔG° [2, 10]: -6.52 kcal/mol
ΔH° [2, 10]: -2.06 kcal/mol
half-life at 100 µM [7]: 26 ± 2 min
stability to α-chymotrypsin (in words) [3]: not protected
stability to trypsin (in words) (Trypsin [6]): only partially improved stability
stability to trypsin (in words) (Trypsin [6]; listed as S/E constrained variant): not protected
Molecule: CC(=O)N[C@@H](CC(C)C)C(=O)N[C@@H](CCC(=O)O)C(=O)N[C@@H](CC(C)C)C(=O)N[C@@H](CCCCN)C(=O)N[C@@H](CCC(=O)O)C(=O)N[C@@H](CCC(=O)O)C(=O)N[C@H]1CSCc2ccc(cc2)-c2ccc(cc2)CSC[C@@H](C(=O)N[C@H](C(=O)N[C@@H](CC(C)C)C(N)=O)C(C)C)NC(=O)[C@H](C)NC(=O)[C@@H]2C[C@@H](F)CN2C(=O)[C@H](CC(=O)O)NC(=O)[C@H](CCCNC(=N)N)NC(=O)[C@H](Cc2ccc(I)cc2)NC1=O [TACC3 518-532-S/E-Bph-IF/fP] (Ac-LELKEEC[Phe(4-I)]RD[Pro(trans-4-F)]ACVL-NH2; linker 7-13 via Biphenyl(4,4'-CH2)2)

IC50 [1]: 123 ± 6 µM
Kd ([2]; N restrained fit, Run 1): 30.3 µM
Kd ([2]; N restrained fit, Run 2): 34.5 µM
Kd ([2]; N unrestrained fit, Run 1): 46 µM
Kd ([2]; N unrestrained fit, Run 2): 36.8 µM
half-life at 100 µM ([7]; isolated enzyme chymotrypsin): 32 ± 4 min
Molecule: CC(=O)N[C@@H](CC(C)C)C(=O)N[C@@H](CCC(=O)O)C(=O)N[C@@H](CC(C)C)C(=O)N[C@@H](CCCCN)C(=O)N[C@@H](CCC(=O)O)C(=O)N[C@@H](CCC(=O)O)C(=O)N[C@@H](CO)C(=O)N[C@@H](Cc1ccccc1)C(=O)N[C@@H](CCCNC(=N)N)C(=O)N[C@@H](CC(=O)O)C(=O)N1CCC[C@H]1C(=O)N[C@@H](C)C(=O)N[C@@H](CCC(=O)O)C(=O)N[C@H](C(=O)N[C@@H](CC(C)C)C(N)=O)C(C)C [TACC3 518-532]

IC50 (Aurora-A 122-403 [8]): > 200 µM
IC50 (Aurora-A 122-403 [9]): 28 µM
B1: TACC3 L/R-Bph-I/fP 518-532 (peptide)
chain: LELKEESFRDPAEVL
modifications: not fully specified; L520C/R526C biphenyl constraint, (4-I)Phe525, trans-(4-F)Pro528; Aurora-A C290A+C393A
